The source of these data is patent publication US4552864A, “Gonadoliberin derivatives process for the preparation and pharmaceutical compositions thereof” (Reanal Finomvegyszergyar, priority 1982, dated 1985).

Like-named read-outs stand apart in the source and are kept apart here.

The assay has as its system adenohypophysis of female Sprague-Dawley rats (cell cultures), LH-hormone released from the cells. The conditions noted are these: for ED50 (LH release): rat pituitary cell culture, 4 hours incubation with 10^-7 to 10^-12 molar peptide; for relative activity (GnRH = 1.00): relative LH-releasing activity versus GnRH, from ED50 values.

Protocol: The LH-releasing activity of the new peptides according to the invention was tested by the following method, in which for comparison the known gonadoliberin was employed under the same conditions.
The adenohypophysis of female Sprague-Dawley rats weighing 150-200 g each was eliminated and pretrypsinized. Approximately 40-50 pituitaries were placed into separate flasks and allowed to stand in 25 ml of a 0.25% trypsin solution (Sigma, type 111) at 0° to 4° C. for 16 hours. The pituitaries were then stirred under a 5% CO2 atmosphere at 37° C. for 20-25 minutes while they were decomposed to their cells. To the cell suspension soya-bean trypsin inhibitor was added whereupon it was suspended and centrifuged in a Medium 199 solution (with Earle's salts, Flow Laboratories, UK) three times (800 x g, 10 minutes). The cell suspension was padded through a sterile metal filter and the number of cells in one ml was counted. After counting, 3 ml of the cell suspension was dispensed into culture flasks each containing 1.8×10^6 cells. The cells were cultured for 3 days at 37° C. under a 5% CO2 atmosphere. On the 3rd day the medium was replaced by a fresh one and incubation was continued for one more day. On the 4th day the medium was changed again and a medium containing a 10^-7 to 10^-12 molar solution of the peptides to be tested was added to the cell cultures. The cells were incubated with the peptide solutions for 4 hours, the culture solutions were eliminated and the amount of the LH-hormone released from the cells was determined by radioimunoassay.

“Glp-His-Trp-Ser-Tyr-D-Thx-Leu-Arg-Pro-Gly-NH2 [D-Thx^6 -GnRH]”: the “ED50 (LH release)” value turned out to be 28.92 pM and the “relative activity (GnRH = 1.00)” value amounted to 11.9.
On the same counts, the results for “Glp-His-Trp-Ser-Tyr-D-Cpa-Leu-Arg-Pro-Gly-NH2 [D-Cpa^6 -GnRH]” are 20.63 pM and 16.6.
In the case of “Gonadoliberin [GnRH, reference compound]”, the “relative activity (GnRH = 1.00)” value stood at 1.00. The ED50 (LH release) (unit as printed for GnRH) was determined as 343 pM.
